Laboratory results as given in PMC3800051 (Bioorganic & medicinal chemistry letters, 2009).
“Also recorded” adds a separate entry of the source.

Legend:
[1] = biological target: T1, PLD1 (Homo sapiens, UniProt Q13393); assay: cell-based
T1 sequence (Q13393 1-1074): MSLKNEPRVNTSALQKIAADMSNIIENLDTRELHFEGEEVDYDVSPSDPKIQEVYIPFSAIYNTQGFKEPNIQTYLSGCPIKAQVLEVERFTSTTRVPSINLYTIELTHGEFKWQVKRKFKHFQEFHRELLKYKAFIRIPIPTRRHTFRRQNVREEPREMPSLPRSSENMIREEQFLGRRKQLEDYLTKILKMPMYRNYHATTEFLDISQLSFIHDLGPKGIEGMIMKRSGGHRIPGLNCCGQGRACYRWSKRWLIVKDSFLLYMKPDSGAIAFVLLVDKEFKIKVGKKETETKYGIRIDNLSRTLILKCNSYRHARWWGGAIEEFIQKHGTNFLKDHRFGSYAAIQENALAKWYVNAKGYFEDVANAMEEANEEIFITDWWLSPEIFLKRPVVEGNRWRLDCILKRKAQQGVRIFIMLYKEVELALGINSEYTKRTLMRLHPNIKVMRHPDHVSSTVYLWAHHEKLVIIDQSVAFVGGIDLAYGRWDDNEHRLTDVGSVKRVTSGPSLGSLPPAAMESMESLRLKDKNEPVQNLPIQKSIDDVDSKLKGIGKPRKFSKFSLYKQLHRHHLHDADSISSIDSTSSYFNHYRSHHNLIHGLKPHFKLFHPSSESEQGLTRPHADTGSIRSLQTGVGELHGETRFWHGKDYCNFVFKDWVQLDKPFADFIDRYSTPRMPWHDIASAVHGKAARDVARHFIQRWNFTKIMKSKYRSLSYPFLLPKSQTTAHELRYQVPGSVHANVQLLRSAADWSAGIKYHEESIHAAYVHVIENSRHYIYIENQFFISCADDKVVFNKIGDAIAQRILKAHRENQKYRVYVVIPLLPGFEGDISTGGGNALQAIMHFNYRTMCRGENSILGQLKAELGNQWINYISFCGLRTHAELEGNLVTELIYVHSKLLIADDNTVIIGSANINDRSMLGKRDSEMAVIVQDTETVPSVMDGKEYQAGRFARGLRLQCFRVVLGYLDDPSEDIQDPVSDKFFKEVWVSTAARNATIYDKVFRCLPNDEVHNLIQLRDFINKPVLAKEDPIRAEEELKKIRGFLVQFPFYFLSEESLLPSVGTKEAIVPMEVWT

[2] = biological target: T1, PLD1; settings: cellular assay, Calu-1 cells
[3] = biological target: PLD2 (Homo sapiens, UniProt O14939); settings: cellular assay, HEK293-gfpPLD2 cells
Chain of PLD2 (O14939 whole entry): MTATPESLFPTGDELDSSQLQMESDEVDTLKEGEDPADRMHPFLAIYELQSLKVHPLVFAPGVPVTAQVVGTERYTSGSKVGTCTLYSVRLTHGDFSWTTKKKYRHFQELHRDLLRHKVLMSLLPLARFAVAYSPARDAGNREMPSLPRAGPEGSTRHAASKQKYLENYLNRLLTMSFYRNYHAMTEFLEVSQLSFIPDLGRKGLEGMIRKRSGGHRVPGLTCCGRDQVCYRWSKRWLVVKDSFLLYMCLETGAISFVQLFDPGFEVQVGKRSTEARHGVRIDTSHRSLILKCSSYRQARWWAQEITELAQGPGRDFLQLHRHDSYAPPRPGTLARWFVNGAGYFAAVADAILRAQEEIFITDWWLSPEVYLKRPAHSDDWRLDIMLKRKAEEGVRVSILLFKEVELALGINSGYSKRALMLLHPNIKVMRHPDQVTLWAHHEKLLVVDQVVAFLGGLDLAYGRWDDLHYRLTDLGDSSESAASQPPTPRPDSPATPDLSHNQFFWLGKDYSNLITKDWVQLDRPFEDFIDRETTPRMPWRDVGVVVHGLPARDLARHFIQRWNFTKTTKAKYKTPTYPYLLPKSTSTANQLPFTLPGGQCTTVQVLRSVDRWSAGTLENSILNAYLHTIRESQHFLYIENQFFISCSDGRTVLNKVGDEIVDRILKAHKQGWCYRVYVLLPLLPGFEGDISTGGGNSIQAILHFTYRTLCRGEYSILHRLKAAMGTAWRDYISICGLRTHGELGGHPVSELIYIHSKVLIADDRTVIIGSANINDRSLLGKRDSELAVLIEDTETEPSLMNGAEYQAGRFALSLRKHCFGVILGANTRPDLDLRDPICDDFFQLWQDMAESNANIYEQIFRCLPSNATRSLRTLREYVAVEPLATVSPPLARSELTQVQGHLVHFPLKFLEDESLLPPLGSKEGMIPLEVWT

In the case of `c1cc(N2CCNCC2)ccn1` [Compound 15], the IC50 [1] is reported as 3.6 to 18 µM.

For `O=C(NCCN1CCC2(CC1)C(=O)NCN2c1ccccc1)[C@H]1C[C@@H]1c1ccccc1` [Compound 9a], the “PLD1 inhibition (in words)” value [2] was “inactive on both PLD isoforms; also recorded: complete loss of PLD inhibition” and the “PLD2 inhibition (in words)” value [3] was “inactive on both PLD isoforms; also recorded: complete loss of PLD inhibition”.

Compound `c1ccc(N2CCNCC2)nc1` [Compound 16] has an IC50 [1] of 3.6 to 18 µM.

`O=C(NCCN1CCC2(CC1)C(=O)NCN2c1ccccc1)c1cnc2ccccc2n1` [Compound 9g] was tested, and the “PLD1 inhibition (in words)” value [2] was “complete loss of PLD inhibitory activity” and the “PLD2 inhibition (in words)” value [3] was “complete loss of PLD inhibitory activity”.

For `C[C@@H](CN1CCC2(CC1)C(=O)NCN2c1ccccc1)NC(=O)[C@H]1C[C@@H]1c1ccccc1` [Compound 10b], the “PLD2 inhibition (in words)” value [3] was “no effect, relative to 9a, on PLD2 inhibition”.
